Measurements published in patent US9119837B2, “Use of sEH inhibitors as analgesics” (The Regents of the University of California, priority 2005, dated 2015).

Key:
[1] = Metabolic stability; format: in vitro ADME
[2] = target: T1, sEH (Homo sapiens, UniProt P34913); experiment: Inhibition of sEH activity; format: biochemical
T1 sequence (P34913 1-555): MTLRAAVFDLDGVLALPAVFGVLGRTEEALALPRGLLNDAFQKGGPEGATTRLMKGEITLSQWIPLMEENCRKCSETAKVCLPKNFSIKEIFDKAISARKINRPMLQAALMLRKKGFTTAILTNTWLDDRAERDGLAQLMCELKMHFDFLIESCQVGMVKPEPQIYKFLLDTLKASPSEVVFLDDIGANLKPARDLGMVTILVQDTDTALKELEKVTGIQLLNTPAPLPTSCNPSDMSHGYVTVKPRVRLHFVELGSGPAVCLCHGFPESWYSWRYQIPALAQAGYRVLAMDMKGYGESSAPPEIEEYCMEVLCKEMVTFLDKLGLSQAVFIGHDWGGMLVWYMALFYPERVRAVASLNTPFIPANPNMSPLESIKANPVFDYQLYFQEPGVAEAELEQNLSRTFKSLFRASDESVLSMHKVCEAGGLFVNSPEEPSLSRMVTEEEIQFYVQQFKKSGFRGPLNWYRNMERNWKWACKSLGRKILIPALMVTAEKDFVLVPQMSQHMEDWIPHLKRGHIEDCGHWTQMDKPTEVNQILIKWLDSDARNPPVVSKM
Text: Any of a number of standard assays for determining epoxide hydrolase activity can be used to determine inhibition of sEH. For example, suitable assays are described in Gill, et al., Anal Biochem 131, 273-282 (1983); and Borhan, et al., Analytical Biochemistry 231, 188-200 (1995)). Suitable in vitro assays are described in Zeldin et al., J Biol. Chem. 268:6402-6407 (1993). Suitable in vivo assays are described in Zeldin et al., Arch Biochem Biophys 330:87-96 (1996). […]
The enzyme also can be detected based on the binding of specific ligands to the catalytic site which either immobilize the enzyme or label it with a probe such as dansyl, fluoracein, luciferase, green fluorescent protein or other reagent. […] The enzyme also can be detected based on the generation of fluorescent products following the hydrolysis of the epoxide. […]

[3] = tested on: pain or itch; experiment: Topical EETs in the methods of the invention (comparison of EET regioisomers); format: in vivo; conditions: topical administration
[4] = tested on: LPS-elicited mechanical allodynia; experiment: LPS-elicited mechanical allodynia, von Frey filaments; format: in vivo, rat; conditions: topical in vehicle cream; 50 mg/kg; LPS 10 μg; FIG. 3
Description: For the quantification of mechanical allodynia, a set of von Frey filaments with different diameters corresponding to different quantities of force applied were employed. The baseline responses of animals were first determined and than LPS was injected in the hind paw. Responses were measured 1 hr and 2 hrs after LPS injection. Eight animals per group were used. Rats' paws were stimulated with filaments of increasing diameter three times. The diameter of filaments that rats withdraw their paws were recorded.

[5] = tested on: LPS-induced thermal hyperalgesia; experiment: LPS-induced thermal hyperalgesia, hind paw withdrawal latency test (Hargreaves); format: in vivo, rat; conditions: for LPS-induced thermal hyperalgesia, percent thermal withdrawal latency (TWL): topical in vehicle cream (Vanicream), 50 mg/kg, LPS 10 μg in hind paw, FIG. 1; for LPS-induced thermal hyperalgesia, dose dependence of percent TWL: topical in vehicle cream, LPS 10 μg, FIG. 2
Text: The hyperalgesic response with the hind paw withdrawal test is considered to result from a combination of central and peripheral mechanisms (Kannan et al., “Endotoxin-induced local inflammation and hyperalgesia in rats mice, a new model for inflammatory pain,” Pharmacology 66:373-379 (1996)). We used the method of Hargreaves et al., “A new and sensitive method for measuring thermal nociception in cutaneous hyperalgesia”, Pain 32, 77-88 (1988) to quantify the pain response of rats treated with two sEH inhibitors and EETs. Pain was quantified using the hind paw withdrawal latency test. Male Sprague-Dawley rats (Charles River Laboratories, Inc., Wilmington, Mass.) weighing 250-300 g, were used. Animals were individually housed at UC Davis Animal Resource Facility under standard conditions with free access to food and water, and maintained for at least 1 week before the experiments. Each rat was used only once. All the experiments were performed during the daytime between 8.00 and 13.00 h (during the first phase of the light period of the diurnal cycle). Rats were first trained to the experimental chamber in three separate sessions. In the day of the experiments rats' basal response was measured and then they were treated with a neutral cream or compound containing formulated cream preceding an injection with 10 ug of endotoxin (Lipopolysaccharide, “LPS”) or capsaicin in the right hind paw to induce pain response. Pain response was then measured at 30, 60, 120 and 240 minutes post LPS or capsaicin injection. sEHIs were formulated by dissolving them in ethanol and mixing with cream in a ratio of 1:9. Eight animals per group were used. To assess thermal nociceptive responses, a commercially available device modeled after that described by Hargreaves et al., supra, was employed. This device consists of a glass surface upon which the rats are placed individually in Plexiglass cubicles (9×22×25 cm). The glass surface temperature is maintained at either 30.1° C. by a feedback-controlled, under-glass, forced-air heating system. The heating system is driven by a thermocouple attached to the bottom surface of the glass plate. The thermal nociceptive stimulus originates from a focused projection bulb mounted in a stimulus tower that is manually manipulated in a two-dimensional axis to permit the stimulus to be delivered to hind paw of each test subject. A timer is automatically actuated with the light source, and response latency is defined as the time required for the paw to show an abrupt withdrawal. Paw withdrawal is detected by a photodiode motion sensor mounted on the stimulus tower that stops the timer and terminates the stimulus. In all cases, a cut-off of 20 seconds is employed to avoid tissue injury. […]

[6] = tested on: carrageenan-elicited thermal hyperalgesia; experiment: Carrageenan-elicited thermal hyperalgesia, paw withdrawal latency; format: in vivo, rat; conditions: carrageenan injected into ipsilateral paw at time 0; AUDA-be administered at 20 hours post-exposure; FIG. 6
Description: Animals were exposed to carrageenan at time 0 by injection into ipsilateral paw, the contralateral paw was left untreated. AUDA-be was administered at 20 hours post-exposure to the carrageenan. Filled diamonds are the withdrawal tests of the treated paw. Filled squares are the tests of the untreated paw. To assess thermal nociceptive responses, a commercially available device modeled after that described by Hargreaves et al., supra, was employed. This device consists of a glass surface upon which the rats are placed individually in Plexiglass cubicles (9×22×25 cm). The glass surface temperature is maintained at either 30.1° C. by a feedback-controlled, under-glass, forced-air heating system. The heating system is driven by a thermocouple attached to the bottom surface of the glass plate. The thermal nociceptive stimulus originates from a focused projection bulb mounted in a stimulus tower that is manually manipulated in a two-dimensional axis to permit the stimulus to be delivered to hind paw of each test subject. A timer is automatically actuated with the light source, and response latency is defined as the time required for the paw to show an abrupt withdrawal. Paw withdrawal is detected by a photodiode motion sensor mounted on the stimulus tower that stops the timer and terminates the stimulus. In all cases, a cut-off of 20 seconds is employed to avoid tissue injury. […]

| Metabolic stability [1] | Activity as an inhibitor of sEH [2] | SMILES | Effectiveness compared with other EETs in the methods of the invention [3] | LPS-elicited mechanical allodynia, percent mechanical withdrawal threshold (MWT) [4] | LPS-induced thermal hyperalgesia, percent thermal withdrawal latency (TWL) [5] | LPS-induced thermal hyperalgesia, dose dependence of percent TWL [5] | Carrageenan-elicited thermal hyperalgesia, thermal withdrawal latency of paw (PWL) [6] |
| --- | --- | --- | --- | --- | --- | --- | --- |
| metabolically stable | particularly high activity on sEH | CCCCCCCCCCCCNC(=O)NC12CC3CC(CC(C3)C1)C2 [ADU, N-Adamantyl-N′-dodecyl urea] |  |  |  |  |  |
|  |  | CCCCC/C=C\C[C@H]1O[C@H]1C/C=C\C/C=C\CCCC(=O)O [11,12-EET] | ineffective or less effective than other EETs |  |  |  |  |
|  |  | CCOCCOCCOCCCCCNC(=O)NC12CC3CC(CC(C3)C1)C2 [compound 950, Adamantan-1-yl-3-{5-[2-(2-ethoxyethoxy)ethoxy]pentyl}urea] |  | block LPS-elicited mechanical allodynia | block | block LPS-induced thermal hyperalgesia in a dose dependent way |  |
|  |  | CCCCOC(=O)CCCCCCCCCCCNC(=O)NC12CC3CC(CC(C3)C1)C2 [AUDA-be, 12-(3-Adamantan-1-yl-ureido)dodecanoic acid butyl ester] |  | block LPS-elicited mechanical allodynia | block | block LPS-induced thermal hyperalgesia in a dose dependent way | blocks carrageenan-elicited thermal hyperalgesia |
